# Source: publication PMC9140716, “Light-Control over Casein Kinase 1δ Activity with Photopharmacology: A Clear Case for Arylazopyrazole-Based Inhibitors” (International Journal of Molecular Sciences, 2022)
# Where two headings read alike, the source gives them in different places.
# Assays:
# [1] = Reductive stability (DTT), UPLC-MS after incubation in buffer; type: physicochemical; conditions: 10 µM, 0.5 mM DTT, 10 mM MgCl2, pH 7.4, 2 h at 30 °C
# Description: (§1) Lastly, the chemical stability of the photoswitches was evaluated in the kinase assay buffer. To avoid the oxidation of the kinase substrate peptide, the buffer contains dithiothreitol (DTT) as a reducing agent. Therefore, we presumed that performing multiple switching cycles in this buffer would allow us to gain insight into both the photochemical- and chemical stability of the three photoswitches. […] We hypothesise that the instability of DK398 in the assay buffer was caused due to either poor solubility or interactions with buffer components, such as the BSA protein.
# Reductive stability (DTT)
# Figure S8. UV-traces (λ = 312 nm) of UPLC-MS measurements after incubation of DK518, DK398 and
# DK557 in buffer (10 µM, 0.5 mM DTT, 10 mM MgCl2, pH 7.4) for 2h at 30 °C. Traces show the presence of […]
# [2] = Reversible switching cycles in kinase assay buffer containing DTT ((photo)chemical stability); type: physicochemical; conditions: kinase assay buffer with 0.5 mM DTT, 365 nm / 445 nm irradiation
# Description: as §1
# Photochemical evaluation. UV-Vis absorption spectra were recorded on an Agilent 8453 UV-Visible spectrophotometer equipped with an irradiation set-up containing a 365 and 445 nm LED. Stock solutions of DK398, DK518, and DK557 were prepared in DMSO (2.0 mM) and were diluted 100-fold in kinase assay buffer (40 mM Tris-HCl, 10 mM MgCl2, 0.5 mM DTT, 0.1 mg/mL BSA, pH 7.4, final 1% DMSO) or DMSO for spectroscopic characterisation. Reversible switching cycles were performed in a kinase assay buffer to evaluate the (photo)chemical stability. All three compounds were irradiated using UV light (λmax = 365 nm) to perform trans-to-cis isomerisation and blue light (λmax = 445 nm) for the back-reaction. The irradiation time was adjusted to the compound until the corresponding PSS was achieved.
# Figure 2 (a) Structures and irradiation-dependent interconversion of the trans and cis isomers of DK398, DK518, and DK557; (b) UV-Vis absorption spectra of DK398, DK518, and DK557 in kinase assay buffer (10–20 µM, 4.8% DMSO) in the thermally adapted (all trans) and irradiated forms; (c) isomer distribution in the photostationary state (pie charts). The pink region represents the percentage of cis-isomer in the PSD as determined by ^1H-NMR (DMSO-d6). […]
# [3] = molecular target: T1, CK1δ (Homo sapiens, UniProt P48730); assay: In vitro kinase assay (ATP consumption, Kinase Glo), 'dark' and UV-irradiated 'light' samples; type: biochemical; conditions: for degree of CK1δ inhibition reached in dose-response curve: 'light' and/or 'dark' samples; for difference in activity (potency) between 'light' and 'dark' states: irradiated (365 nm) vs thermally adapted sample, 'light' more potent
# Description: After evaluating the photochemical properties of the three photoswitches DK398, DK518, and DK557 in detail, an in vitro kinase activity assay was performed. In this assay, the inhibitory activity towards CK1δ of both dark (all-trans) and irradiated (cis-enriched) samples was evaluated to construct dose–response curves for both states. During the enzymatic reaction (2 h), samples were either kept in the dark or irradiated with UV light (λmax = 365 nm). UV light irradiation itself was confirmed to have no effect on CK1δ activity (Figure S9). After the enzymatic reaction, ATP consumption was measured to determine enzyme activity. The ATP consumption of the samples containing the photoswitchable inhibitors was compared to the ATP consumption of a DMSO control to assess the degree of enzyme inhibition.
# In vitro kinase assay. Stock solutions (2.0 mM) of the photoswitchable LH846 inhibitors were prepared in DMSO and thermally adapted by heating to c.a. 100 °C for 1 min. Dilutions were made in DMSO to reach 21-fold concentrated solutions of the desired concentrations to be tested in the assay. The assays were performed on white, solid-bottom 384-well plates and electronic, hand-held Gilson pipettes were used. The total volume for the reaction was 10.5 µL. All solutions were applied to the well plate in a dark room to prevent ambient-light-induced photo-isomerisation. Firstly, a solution of CK1δ and substrate peptide RKKKAEpSVASLTSQCSYSS (Anaspec Fermont, CA, USA, custom made) in a kinase assay buffer was aliquoted into the bottom of the wells (9 µL). Next, the 21-fold concentrated solutions of the compound (0.5 μL, final 4.8% DMSO) was pipetted into the bottom of the wells. Lastly, a solution of ATP in water (50 µM, 1 μL) was pipetted into the upper corners of each well (final concentration 4.8 µM). Final concentrations of CK1δ and the substrate peptide were 2 ng/µL and 50 µM, respectively. The enzymatic reaction was started by spinning down the plate (1800× g, 2 min). By employing this method, all reactions were started at the same time, minimising variance between different samples. During the assay, ‘light’ samples were irradiated with UV light (λ = 365 nm, UV lamp Spectroline, ENB-280/FE, 1 × 8 Watt) for the full duration of the assay (2 h). The wells of ‘dark’ samples were carefully covered with an aluminium sticker. After the incubation period (2 h at 30 °C), 10 μL Kinase Glo® (Promega, Madison, WI, USA) was applied into the wells and the luminescent signal was recorded by a plate reader (BioTek Synergy H1). All measurements were carried out in triplicate. Enzyme activity was determined by comparing the ATP consumption of the samples containing the LH846-analogues to that of a DMSO control, set as 100% enzyme activity.
# [4] = molecular target: T1, CK1δ; parameters: method as in PMID 21954091; conditions: parent inhibitor; read-out: IC50 of LH846 towards CK1δ; cited from earlier work
# [5] = 'dark' (all-trans, thermally adapted) samples, 2 h at 30 °C, 4.8 µM ATP, read-out: 50 % inhibition: dark (absolute IC50)
# [6] = 'light' (cis-enriched) samples irradiated with UV light 365 nm for the full 2 h, 30 °C, 4.8 µM ATP, read-out: 50 % inhibition: light (absolute IC50)
# T1 sequence (P48730 whole entry): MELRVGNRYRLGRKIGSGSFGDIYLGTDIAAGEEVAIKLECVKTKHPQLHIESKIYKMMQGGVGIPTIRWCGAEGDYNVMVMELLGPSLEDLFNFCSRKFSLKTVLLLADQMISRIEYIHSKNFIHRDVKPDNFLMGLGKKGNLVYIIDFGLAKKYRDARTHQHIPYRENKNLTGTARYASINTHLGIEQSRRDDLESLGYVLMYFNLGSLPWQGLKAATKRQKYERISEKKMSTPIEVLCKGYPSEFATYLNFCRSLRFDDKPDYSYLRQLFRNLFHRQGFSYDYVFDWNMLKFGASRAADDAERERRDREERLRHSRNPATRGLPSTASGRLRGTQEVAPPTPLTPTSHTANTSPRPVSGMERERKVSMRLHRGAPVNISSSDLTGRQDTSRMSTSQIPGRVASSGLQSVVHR
stability over multiple switching cycles [2],"IC50 [3, 5]","IC50 [3, 6]",degree of CK1δ inhibition reached in dose-response curve [3],difference in activity (potency) between 'light' and 'dark' states [3],"IC50 ([3]; both 'light' and 'dark' samples, read-out: IC50 values towards CK1δ)",Structure (SMILES),stability against reduction by DTT [1],IC50 [4]
poor stability,> 10000 nM,~1000 nM,incomplete inhibition,~10 fold,,Cc1cc2sc(NC(=O)Cc3ccc(/N=N/c4ccccc4)cc3)nc2cc1Cl [DK398],No reduction products (hydrazine or aniline) were observed,
,,,,,,Cc1cc2sc(NC(=O)Cc3ccccc3)nc2cc1Cl [LH846],,290 nM

Structure (SMILES),stability over multiple switching cycles [2],"IC50 [3, 5]","IC50 [3, 6]",degree of CK1δ inhibition reached in dose-response curve [3],difference in activity (potency) between 'light' and 'dark' states [3],"IC50 ([3]; both 'light' and 'dark' samples, read-out: IC50 values towards CK1δ)",stability against reduction by DTT [1],IC50 [4]
Cc1cc2sc(NC(=O)Cc3cccc(/N=N/c4ccccc4)c3)nc2cc1Cl [DK518],excellent stability,340 nM,350 nM,achieved complete enzyme inhibition,completely abolished the difference in activity,~350 nM,No reduction products (hydrazine or aniline) were observed,
Cc1cc2sc(NC(=O)Cn3nc(C)c(/N=N/c4ccccc4)c3C)nc2cc1Cl [DK557],excellent stability,11600 nM,1200 nM,complete enzyme inhibition upon irradiation,~10 fold,,No reduction products (hydrazine or aniline) were observed,
